In brackets after ≈: the same amount, converted by molar mass. Several values for one entry are separate records, joined by “and”; a condition that tells them apart may be missing. Equal values may be shown once.
Legend:
HDFn cells [1] = assay: mtDNA damage after UV irradiation (1 kb real-time qPCR assay); type: cell-based, human; settings: UV 2 SED
Protocol: 1,000 μg/ml solutions of mangiferin extract were prepared as outlined in Example 1 above. 3 ml of the mangiferin solution was added to a 45 mm diameter quartz glass petri dish. Quartz was chosen as it is known to permit both UVA and UVB rays to pass through. The quartz glass dish was then placed on top of a slightly smaller dish containing the cultured HDFn cells. The cells were then irradiated through the quartz glass petri dish, using either a Cleo Performance (iSOLde, Germany) or Aramid B (Cosmedico, Germany) lamp at 2 standard erythemal doses (SED). […]
Following irradiation, total DNA was extracted and mtDNA damage analysed using a 1 kb real-time qPCR assay. mtDNA damage is expressed as a Ct value (where a 1 Ct difference is equivalent to a 2-fold difference in damage), and is based on the observation that damaged mtDNA takes longer to be amplified via qPCR. To find the acellular UV transmission of extracts, the dish containing the diluted extract was placed on top of a spectroradiometer and the amount of UV which passes through the dish was measured. All statistical differences were determined using one-way ANOVA with Dunnett's test to compare to a control column (0.05*, P<0.01**, P<0.001***). […]

HDFn cells [2] = assay: Cell viability assay (MTS cell proliferation assay); type: cell-based; settings: unfiltered extract, 50 to 50,000 μg/ml, 24 hours incubation
Protocol: Stock solutions of mangiferin were made by dissolving mangiferin extract in water, and diluting to the required concentration. The stock solutions were then added to HDFn cells at a range of concentrations from 50 μg/ml to 50,000 μg/ml, and incubated for 24 hours under standard culture conditions.

UV absorbance scan = type: physicochemical; settings: 1,000 μg/ml, quartz cell
Protocol: A UV absorbance scan was performed on mangiferin extract at a concentration of 1,000 μg/ml, and the results are shown in FIG. 6. The spectrometer was set up using a quartz cell with a 1.05 ms integration time (the minimum for the spectrometer) and the spectra was based on an average of 100 samples.
UV absorbance scans were performed on stock solutions of the mangiferin-complexes prepared in example 8 above and the results are shown in FIG. 7. The spectrometer was set up using a quartz cell with a 1.05 ms integration time (the minimum for the spectrometer) and the spectra was based on an average of 100 samples. The mangiferin-only solution required to be diluted to 25% of its original concentration to reach the point at which it no longer saturated the spectrometer, while mangiferin-complex solutions were diluted to 2.5%. However, good absorbance was then observed for all of the samples, with the characteristic peaks at ^˜320 nm and ^˜370 nm clearly visible.

[3] = Solubility of mangiferin in deionised water; type: physicochemical
Protocol: In order to assess the solubility of mangiferin in aqueous solution, 0.18 g of mangiferin was added to 100 mls of deionised water. […] The solution was then Buchner filtered, and the mass of the undissolved material weighed. Solubility was calculated based on the difference between the initial mass of mangiferin and that of the undissolved material.

Structure (SMILES): O=c1c2cc(O)c(O)cc2oc2cc(O)c(C3OC(CO)C(O)C(O)C3O)c(O)c12 (stereo not shown) [mangiferin, 1,3,6,7-tetrahydroxy-2-[3,4,5-trihydroxy-6-(hydroxymethyl)oxan-2-yl]xanthen-9-one]
- increase in mtDNA damage compared with foil-wrapped (non-irradiated) samples (HDFn cells [1]; 1,000 μg/ml solution in quartz dish above cells, water control 3.1 Cts): 1.6 Cts
- fold increase in mtDNA damage compared with foil-wrapped samples (HDFn cells [1]; 1,000 μg/ml, 1 Ct = 2-fold, water control approximately 8-fold): approximately 3 fold
- concentration up to which cell viability is seen (cell death above) (HDFn cells [2]): ~5,000 μg/ml
- UV absorbance peaks (UV absorbance scan): ~320 nm and ~370 nm
- solubility in water (in words) ([3]; even after stirring for 24 hours): very insoluble in water
- solubility at 4 h ([3]; thermodynamic from solid, deionised water, 40° C., 500 rpm, stirring time 4 hours): 43 µg/mL (≈ 102 µM)
- solubility at 24 h ([3]; thermodynamic from solid, deionised water, 40° C., 500 rpm, stirring time 24 hours): 139 µg/mL (≈ 329 µM)

From patent US20210106601A1, “MANGIFERIN AS A PROTECTIVE AGENT AGAINST MITOCHONDRIAL DNA DAMAGE AND SKIN-CARE COMPOSITIONS COMPRISING SAME” (priority 2018, published 2021)
